Laboratory results reported in ChEMBL document CHEMBL1131560, “Preparation of 9-deoxo-4"-deoxy-6,9-epoxyerythromycin lactams "motilactides": potent and orally active prokinetic agents” (Bioorg Med Chem Lett, 1998).

Key:
[1] = species on record: Oryctolagus cuniculus; test: In vitro smooth muscle contractility using isolated rabbit duodenum; format: functional, Muscle tissue
[2] = Compound was evaluated for the half life period after oral administration in conscious dog.; format: ADME, organism-based, Canis lupus familiaris; conditions: in vivo
[3] = Oral bioavailability in dog (conscious); format: ADME, organism-based, Canis lupus familiaris; conditions: in vivo
[4] = species on record: Canis familiaris; test: Effective dose was evaluated for gastrointestinal motor stimulating activity in dog; format: functional; conditions: Canis lupus familiaris

Row | half-life [2] | bioavailability [3] | Compound | pED50 [1] | ED50 [4]
1 |  |  | CC[C@H]1NC(=O)[C@H](C)[C@@H](O[C@H]2C[C@@](C)(OC)C[C@H](C)O2)[C@H](C)[C@@H](O[C@@H]2O[C@H](C)C[C@H](NC)[C@H]2O)[C@@]2(C)C[C@@H](C)[C@@H](O2)[C@H](C)[C@@H](O)[C@]1(C)O | 7.25 | 
2 |  |  | CC[C@H]1NC(=O)[C@H](C)[C@@H](O[C@H]2C[C@@](C)(OC)C[C@H](C)O2)[C@H](C)[C@@H](O[C@@H]2O[C@H](C)C[C@H](N(C)CC(C)C)[C@H]2O)[C@@]2(C)C[C@@H](C)[C@@H](O2)[C@H](C)[C@@H](O)[C@]1(C)O | 6.88 | 
3 | 198 min | 40% | CC[C@H]1NC(=O)[C@H](C)[C@@H](O[C@H]2C[C@@](C)(OC)C[C@H](C)O2)[C@H](C)[C@@H](O[C@@H]2O[C@H](C)C[C@H](N(C)C)[C@H]2O)[C@@]2(C)C[C@@H](C)[C@@H](O2)[C@H](C)[C@@H](O)[C@]1(C)O | 7.5 | 
4 |  |  | CC[C@H]1NC(=O)[C@H](C)[C@@H](O[C@H]2C[C@@](C)(OC)C[C@H](C)O2)[C@H](C)[C@@H](O[C@@H]2O[C@H](C)C[C@H](N(C)CCF)[C@H]2O)[C@@]2(C)C[C@@H](C)[C@@H](O2)[C@H](C)[C@@H](O)[C@]1(C)O | 6.3 | 
5 | 228 min | 60.5% | CC[C@H]1NC(=O)[C@H](C)[C@@H](O[C@H]2C[C@@](C)(OC)C[C@H](C)O2)[C@H](C)[C@@H](O[C@@H]2O[C@H](C)C[C@H](N(C)C(C)C)[C@H]2O)[C@@]2(C)C[C@@H](C)[C@@H](O2)[C@H](C)[C@@H](O)[C@]1(C)O | 8 | 0.036 mg/kg
6 |  |  | CC[C@@H](O)[C@@](C)(O)C1OC(=O)[C@@H](C)[C@H](OC2C[C@@](C)(OC)C[C@H](C)O2)[C@H](C)[C@@H](O[C@@H]2O[C@H](C)C[C@H](N(C)C)[C@H]2O)[C@@H](C)[C@H]2O[C@H]([C@@H]2C)[C@@H]1C (some centres undefined) | 4.35 | 
7 |  |  | CC[C@H]1NC(=O)[C@H](C)[C@@H](O[C@H]2C[C@@](C)(OC)C[C@H](C)O2)[C@H](C)[C@@H](O[C@@H]2O[C@H](C)C[C@H](N(C)CC(C)O)[C@H]2O)[C@@]2(C)C[C@@H](C)[C@@H](O2)[C@H](C)[C@@H](O)[C@]1(C)O (some centres undefined) | 6.6 | 
8 |  |  | CC[C@H]1NC(=O)[C@H](C)[C@@H](O[C@H]2C[C@@](C)(OC)C[C@H](C)O2)[C@H](C)[C@@H](O[C@@H]2O[C@H](C)C[C@H](N(C)CCO)[C@H]2O)[C@@]2(C)C[C@@H](C)[C@@H](O2)[C@H](C)[C@@H](O)[C@]1(C)O | 6.6 | 
9 | 240 min | 5% | CC[C@H]1OC(=O)[C@H](C)[C@@H](O[C@H]2C[C@@](C)(OC)C[C@H](C)O2)[C@H](C)[C@@H](O[C@@H]2O[C@H](C)C[C@H](N(C)C)[C@H]2O)[C@@]2(C)C[C@@H](C)[C@@H](O2)[C@H](C)[C@@H](O)[C@]1(C)O | 7.8 | 
10 |  |  | CC[C@H]1NC(=O)[C@H](C)[C@@H](O[C@H]2C[C@@](C)(OC)C[C@H](C)O2)[C@H](C)[C@@H](O[C@@H]2O[C@H](C)C[C@H](N(C)CC)[C@H]2O)[C@@]2(C)C[C@@H](C)[C@@H](O2)[C@H](C)[C@@H](O)[C@]1(C)O | 7.11 | 
11 |  |  | CC[C@H]1OC(=O)[C@H](C)[C@@H](O[C@H]2C[C@@](C)(OC)C[C@H](C)O2)[C@H](C)[C@@H](O[C@@H]2O[C@H](C)C[C@H](N(C)CC)[C@H]2O)[C@@]2(C)CC(C)=C(O2)[C@H](C)[C@@H](O)[C@H]1C [ALEMCINAL] | 7.22 | 
12 |  |  | CC[C@H]1OC(=O)[C@H](C)[C@@H](O[C@H]2C[C@@](C)(OC)[C@@H](O)[C@H](C)O2)[C@H](C)[C@@H](O[C@@H]2O[C@H](C)C[C@H](N(C)C)[C@H]2O)[C@](C)(O)C[C@@H](C)C(=O)[C@H](C)[C@@H](O)[C@]1(C)O [ERYTHROMYCIN] | 5.85 | 
